Key:
Assay type in all cases: in vivo
[1] = system: male NMRI mice; test: Phencyclidine (PCP)-induced hyperlocomotion in mice; conditions: Mus musculus, PO, PCP 5 mg/kg s.c., read-out: ED50 PCP (inhibition of PCP-induced hyperlocomotion)
Protocol: On the day of experiments, the mice were brought into the procedural room. They were housed individually and allowed to acclimate for at least a half hour prior to testing. Although the studies were conducted during the light cycle (from 8:00 to 16:00 h), the procedure room was only sparsely lit (3 to 30 LUX) to provide better contrast for the video tracking. Local lighting was used for the injection procedures. During each trial, an individual mouse was placed in an open field arena (grey PVC cylinder with a height of 40 cm and a diameter of 22.5 cm). Each arena was placed on an infrared LED (8×8 LEDs)-lit box (white PVC squared box; 40×40 cm^2; height 12.5 cm). Each mouse was placed in the center of the arena and allowed to explore freely for 30 min. After each trial, the arena was cleaned with a wet and subsequently with a dry cleaning cloth. […] Animal behavior was recorded and analyzed using the Noldus Ethovision XT Video Tracking System (Version 3.1; Noldus, Wageningen, The Netherlands). The total distance traveled (cm) was calculated. […]
Test compound or solvent was administered at a pre-defined time before measurement (standard: 30 min) to male NMRI mice that were challenged with phencyclidine (PCP; 5 mg/kg, s.c.) 30 min before measurement. Activity was measured for a period of 30 min.

[2] = system: Adult male CF No 1 albino mice; test: 6 Hz psychomotor seizure test in mice; conditions: 10 mg/kg p.o.
Protocol: (§1) Test compounds were administered using an optimal fluid volume to body fluid ratio. Test compounds were administered to mice in a volume of 0.01 ml/g of body weight (White, H. S., et al., General principles: Experimental selection, quantification, and evaluation of antiepileptic drugs, in Antiepileptic Drugs, Fourth Edition, R. H. Levy, R. H. Mattson, and B. S. Meldrum, Editors. 1995, Raven Press, Ltd.: New York. p. 99-110). The test compound number 6 was administered orally (p.o.). For each of the tests performed on the test compound, a 40% Hydroxypropyl-β-cyclodextrin (Hp-β-CD) stock solution was first prepared and utilized for formulating the test compound number 6 at the desired concentrations for testing via the oral (p.o.) route. Final compound concentrations were administered as suspensions in 20% Hp-β-CD. A 20% Hp-β-CD solution was used for the vehicle groups.
(§2) Adult male CF No 1 albino mice (26-35 g) were obtained from Charles River, Portage, Mich. The animals were maintained on an adequate diet (Prolab RMH 3000) and allowed free access to food and water, except during the short time they were removed from their cage for testing. Animals newly received in the laboratory were allowed sufficient time to correct for possible food and water restriction incurred during transit before being employed in testing. All mice were housed in plastic cages in specially constructed rooms with controlled humidity, exchange of air and controlled lighting (12 hours on-12 hours off). The animals were housed, fed, and handled in a manner consistent with the recommendations in the National Council Publication, “Guide for the Care and Use of Laboratory animals.” Experimental Design General Methods Minimal Motor Impairment (MMI):
Groups of four animals each were administered test compounds and each group was tested at one of five time points: 0.25, 0.5, 1, 2, or 4 h post-treatment (White et al. 1995). TPE was determined using the 6 Hz (32 mA) assay. The time (0.25, 0.5, 1, 2, or 4 h post-treatment) at which maximal protection was observed was considered the Time of Peak Effect (TPE). At the TPE determined for this study, or determined previously, compounds were tested in the 6 Hz assay (32 and/or 44 mA), across several doses and comprising doses that elicited little or no protection to full protection. […] Serum Collection for pK/pD Analysis: In various tests, animals were sacrificed following testing, and trunk blood and/or brain tissue (whole brains) was collected for quantification of drug levels. Immediately after testing, animals were decapitated and trunk blood was collected into a BD Vacutainer® tube containing K2EDTA and chilled on ice until centrifugation. […]

[3] = system: Adult male CF No 1 albino mice; test: Minimal motor impairment (rotarod) in mice
Protocol: as §1, §2
Acute MMI was assessed by a combination of direct observations of the animal for overt symptoms of the animal's neurological or muscular function. In mice, the rotarod procedure was used to disclose minimal muscular or neurological impairment. When a mouse is placed on a rod that rotates at a speed of 6 rpm, the animal can maintain its equilibrium for long periods of time. The animal was considered toxic if it fell off this rotating rod three times during a 1 min period.

For `C[C@H](Oc1ccc(F)cc1F)c1ccn2c(CC3CC3)nnc2c1C(F)(F)F` [Compound 6, 3-(Cyclopropylmethyl)-7-[(1S)-1-(2,4-difluorophenoxy)ethyl]-8-(trifluoromethyl)[1,2,4]triazolo[4,3-a]pyridine], the ED50 [1] was 28.3 mg/kg, the “# protected/# tested” value ([2]; 6 Hz 32 mA, 1 h) was 0/4 and the “# protected/# tested” value ([2]; 6 Hz 32 mA, 4 h) was 0/4. For the same compound, the “# protected/# tested” value ([2]; dose-response, 6 Hz 32 mA, 0.5 h TPE) was 6/8, the “# protected/# tested” value ([2]; dose-response, 6 Hz 44 mA, 0.5 h TPE) was 0/8 and the “# rotarod motor impairment/# tested” value ([3]; 10 mg/kg p.o., 0.25 h) was 0/4. For the same compound, the “# rotarod motor impairment/# tested” value ([3]; 10 mg/kg p.o., 0.5 h) was 0/4, the “# rotarod motor impairment/# tested” value ([3]; 10 mg/kg p.o., 1 h) was 0/4 and the “# rotarod motor impairment/# tested” value ([3]; 10 mg/kg p.o., 2 h) was 0/4. The “# rotarod motor impairment/# tested” value ([3]; 10 mg/kg p.o., 4 h) was 0/4, the “# rotarod motor impairment/# tested” value ([3]; 20 mg/kg p.o., 0.25 h) was 0/4 and the “# rotarod motor impairment/# tested” value ([3]; 20 mg/kg p.o., 0.5 h) was 0/4. The “# rotarod motor impairment/# tested” value ([3]; 20 mg/kg p.o., 1 h) was 0/4, the “# rotarod motor impairment/# tested” value ([3]; 20 mg/kg p.o., 2 h) was 0/4 and the “# rotarod motor impairment/# tested” value ([3]; 20 mg/kg p.o., 4 h) was 0/4. For the same compound, the “# rotarod motor impairment/# tested” value ([3]; dose-response, 6 Hz 32 mA group, 2.5 mg/kg p.o., 0.5 h) was 0/8, the “# rotarod motor impairment/# tested” value ([3]; dose-response, 6 Hz 32 mA group, 5 mg/kg p.o., 0.5 h) was 0/8 and the “# rotarod motor impairment/# tested” value ([3]; dose-response, 6 Hz 32 mA group, 10 mg/kg p.o., 0.5 h) was 0/8. For the same compound, the “# rotarod motor impairment/# tested” value ([3]; dose-response, 6 Hz 32 mA group, 20 mg/kg p.o., 0.5 h) was 0/8, the “# rotarod motor impairment/# tested” value ([3]; dose-response, 6 Hz 44 mA group, 10 mg/kg p.o., 0.5 h) was 0/8 and the “# rotarod motor impairment/# tested” value ([3]; dose-response, 6 Hz 44 mA group, 15 mg/kg p.o., 0.5 h) was 0/8. The “# rotarod motor impairment/# tested” value ([3]; dose-response, 6 Hz 44 mA group, 20 mg/kg p.o., 0.5 h) was 0/8 and the “# rotarod motor impairment/# tested” value ([3]; dose-response, 6 Hz 44 mA group, 40 mg/kg p.o., 0.5 h) was 0/8.

— patent publication US9708315B2, “1,2,4-triazolo[4,3-a]pyridine compounds and their use as positive allosteric modulators of MGLUR2 receptors” (Janssen Pharmaceutica NV, priority 2013, dated 2017)
